Where “and” joins values, the source holds several entries; their conditions need not be identical. Identical values can stand only once.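 Cells were grown in 96-well plates and exposed to each compound for 48 hours at five concentrations; endpoints were interpolated linearly between bracketing concentrations, or set to the highest concentration if not reached. GI50: concentration for 50% inhibition of growth. At the TGI there is no net growth.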 Calls of active or inactive are those of the source. Rule as the data show it: active = GI50 below about 0.43 µM; inactive = the rest.
System: MDA-MB-468 breast
Test: NCI anticancer screen, dose series, 48 h

| SMILES | GI50 | TGI | outcome |
| --- | --- | --- | --- |
| O=C(Nc1ccc(-n2ccc3c(NC(=O)c4ccccc4)ncnc32)cc1)Nc1cccc(Cl)c1Cl | 1.18 µM | 3.42 µM | – |
| COc1ccccc1CNCCCN1C(=O)c2ccc3c4c(ccc(c24)C1=O)C(=O)N(CCCCNCCCN)C3=O | 0.267 µM | 0.835 µM | – |
| CC(C)(C)CC(C)(C)NCc1cc(C(C)(C)C)cc(CNC(C)(C)CC(C)(C)C)c1O | 1.26 µM | 2.85 µM | – |
| O=C(OCc1ncc(-c2ccc(C(F)(F)F)cc2)c(NC2CCCCCC2)n1)c1c(F)c(F)c(F)c(F)c1F | 2 µM | 5.01 µM | – |
| CCCC(CCC)C(=O)OCC1(CO)C/C(=C\c2ccc(F)cc2)C(=O)O1 (stereo not drawn) | 11.3 µM | 24.2 µM | – |
| O=C(N/N=C/c1ccc([N+](=O)[O-])s1)c1[nH]c2ccc(Br)cc2c1-c1ccccc1 | 0.731 µM | 22.2 µM | – |
| COc1cccc(NC(=O)c2sc3nc4c(cc3c2N)C(=O)CCC4)c1 | 0.0467 µM | > 100 µM | – |
| Cc1nc(N2CCC3(CC2)CO[C@@H](C)[C@H]3N)c(CO)nc1Sc1ccnc(N)c1Cl | 0.228 µM | 4.86 µM | – |
| Cc1cc(CC(C)CC(C)(C)C)n(O)c(=O)c1 (stereo not drawn) (tested in a mixture with another compound) | 0.273 µM | 1.06 µM | – |
| Cc1sc2c(c1C)C(c1ccc(Cl)cc1)=N[C@@H](CC(=O)OC(C)(C)C)c1nnc(C)n1-2 | 0.0708 µM and 0.112 µM | 1.52 µM and 10.8 µM | – |
| COc1ccc2[nH]cc(-c3nc(N)nnc3-c3cn(C)c4ccc(Br)cc34)c2c1 | 0.698 µM | 16 µM | – |
| CO[C@H](C(=O)[C@@H](O)[C@@H](C)O)[C@@H]1Cc2cc3cc(OC4CC(OC5CC(O)C(O)C(C)O5)C(O)C(C)O4)c(C)c(O)c3c(O)c2C(=O)[C@H]1OC1CC(OC2CC(OC3CC(C)(O)C(O)C(C)O3)C(O)C(C)O2)C(O)C(C)O1 (stereo partly drawn) | – | – | inactive |
| COc1cc(-c2nc(-c3nc4ccccc4[nH]3)cc3c2[nH]c2ccccc23)cc(OC)c1OC | 3.32 µM | > 100 µM | – |
| OCC(O)c1nc2ccc3[nH]ncc3c2c2c1CCCC2 (stereo not drawn) | 1.04 µM | 2.11 µM | – |
| CNC(=O)Cc1nc(-c2cccc(NS(=O)(=O)c3c(F)cccc3F)c2F)c(-c2ccnc(Nc3ccccc3)n2)s1 | > 23.4 µM | > 50 µM | – |
| CCN(CC)CCCC(C)N=C(C1=C(C(=NC(C)CCCN(CC)CC)c2cccc(OC)c2)C(=O)NC1=O)c1cccc(OC)c1 (stereo not drawn) | 0.869 µM | 2.07 µM | – |
| Cn1c2ccc(Br)cc2c2c3c(c4c5ccccc5[nH]c4c21)C(=O)N(O)C3=O | 0.214 µM | 0.638 µM | – |
| CC(C)(C)[Si](C)(C)OC1[C@@H](O[Si](C)(C)C(C)(C)C)[C@@H](CNC(=O)NC(=O)CCl)O[C@H]1n1cnc2c(NC(=O)Nc3ccccc3)ncnc21 (stereo partly drawn) | 0.839 µM | 1.91 µM | – |
| COc1ccc2c(c1)CC[C@H](O)/C2=C/c1cc(OC)c(OC)c(OC)c1 | 0.2 µM | 15.8 µM | – |
| Cc1cc(N2CCSCC2)nc(NC2CCCC(Nc3ccnc4cc(Cl)ccc34)C2)n1 (stereo not drawn) | 1.58 µM | 3.35 µM | – |
| COC(=O)c1cc(O)c2c(c1C(=O)OC)C[C@H]1[C@@H]3CC=C4C[C@@H](O)CC[C@]4(C)[C@H]3CC[C@]21C | 2.87 µM | 18.1 µM | – |
| C=C1CCC2C(C)(COC(=O)CC)C(OC(=O)CC)CCC2(C)C1C/C=C1/C(=O)OCC1OC(=O)CC (stereo not drawn) | 1.74 µM | 3.4 µM | – |
| Cc1ccc(C)c(C2NC(=O)c3ccccc3N2)c1 (stereo not drawn) | 4.38 µM | > 100 µM | – |
| CCC(CNc1cc(OC)cc2cccnc12)NC1CCCCC1 (stereo not drawn) | 7.66 µM | 35.5 µM | – |
| CCN(CC)CCCNC(=O)c1c2c(n3ccccc13)C(=O)c1ncccc1C2=O | 0.283 µM | 1.08 µM | – |
| Nc1nc(N)c2cc(NCc3ccc(Cl)c(Cl)c3)ccc2n1 | 1.06 µM | 2.23 µM | – |
| O=C(/C=C/c1ccccc1)n1c(-c2ccc(Cl)cc2)nc2ccccc21 | 1.52 µM | 4.32 µM | – |

From PubChem BioAssay (NCI)
